# According to US11014908B2, “Chemical compounds” (Pfizer Inc., priority 2018, dated 2021):
# Key:
# [1] = target: T1, HbS (Homo sapiens, UniProt P68871+P69905, E7V); assay: 'R'-'T' assay (conversion of oxy HbS to deoxy HbS under deoxygenating conditions); assay type: biochemical; conditions: 50% inhibition of HbS 'R'-'T' conversion; 3 uM HbS, <1% O2
# T1 construct: HbS was obtained from the blood of homozygous S/S patients; from tissue; host or cells: red blood cells of homozygous S/S patients
# Description: Conversion from oxy (R, relaxed state) to deoxy (T, tense state) HbS in the presence of compound was performed to determine the ability of compounds to stabilize the oxy (R) state under deoxygenating conditions. The assay run was similar to the ‘Oxygen dissociation assay’ described in Oksenberg et al, Br J Haematology, 2016, 175, 141-153.
# Assay ready compound plates were prepared by first preparing a master serial dilution plate from a 30 mM initial compound stock in 100% DMSO. From this master serial dilution plate, 167 nL of the desired compound concentration was delivered to the assay ready plates using acoustical dispensing. Plates were frozen at −20° C. until needed. Purified HbS-O2 (i.e. oxy HbS) was diluted to 3 uM in 100 mM potassium phosphate buffer, pH=7.4. 50 uL of 3 uM stock solution was added to each well of the assay ready plate and mechanically mixed eight times. Following mixing the plates were covered and incubated at room temperature for one hour with moderate shaking. Following incubation, the plates were placed in a deoxygenated environment (<1% O2) for two hours, and the conversion to deoxy HbS monitored as a function of time. Oxygenated and deoxygenated forms of hemoglobin were detected using the absorbance of the Soret peaks at 415 and 430 nm respectively, and absorbance measurements (optical density, OD) were taken at 0, 90 and 120 minutes. Background absorbance for correction was collected at 700 nm.
# Data were analyzed by first subtracting baseline absorbance at 700 nm from 415 nm and 430 nm data at each timepoint, and then taking the ratio of 415/430 nm data (Ratio=[(OD415−OD700)/(OD430−OD700)]. The effect at each timepoint was calculated using the ratios from the previous calculation at time 0 and each time point of interest (Effect^time x=Ratio^time x/Ratio^time 0). Percent effect was calculated by comparing the effects of compound versus HbS only with the effects observed by the positive control compound tucaresol (percent effect=[(effect^time x compound−effect^time x HbS)/(effect^time x tucaresol−effect^time x HbS)]×100). Data were reported as the percent effect for a single point. Calculations to determine the concentration of compound for 50% inhibition (IC50 (uM)) of the HbS ‘R’-‘T’ conversion were based on the percent effect at varying compound concentration.
# [2] = target: T2, purified sickle cell hemoglobin (HbS) (Homo sapiens, UniProt P68871+P69905, E7V); assay: Binding affinity to purified HbS by Surface Plasmon Resonance (SPR); conditions: crosslinked biotinylated HbS, 1:1 binding model
# T2 construct: HbS was obtained from the blood of homozygous S/S patients; from tissue; host or cells: red blood cells of homozygous S/S patients
# Description: Binding Affinity, Kd (uM)
# The binding affinity for compounds to purified sickle cell hemoglobin (HbS) was determined using Surface Plasmon Resonance (SPR). Patient Sickle Cell blood was obtained from Boston Children's Hospital in accordance with Institutional Review Board protocols. HbS was obtained from the blood of homozygous S/S patients, and purified using the method described in: Antonini and Brunori, Hemoglobin and Myoglobin in their Reactions with Ligands. Amsterdam, London, North-Holland Publishing Company, 1971. Whole blood was separated into red blood cell and plasma components by centrifugation, after which the plasma was decanted and discarded. Packed red blood cells were washed with normal saline (0.9% NaCl) and then lysed by 2:1 dilution with cold deionized water. The hemolysate was centrifuged to remove cellular debris, and further purified with the addition of Drabkin's Buffer (2.8 M potassium phosphate), and centrifugation with Celite®. Organic phosphates (2,3-BPG) were removed via gel filtration with Sephadex® G-25. HbS and wild-type hemoglobin, hemoglobin A (HbA), were separated by […], using diethylaminoethyl (DEAE)-Sepharose® fast flow, and eluted using a pH gradient from pH 8.5-pH 7.5. Purity of the resulting HbS and HbA was determined by native gel electrophoresis and HbS fractions used further.
# To stabilize the tetrameric structure of hemoglobin, HbS was crosslinked between the beta subunits (Lys82-Lys82) using bis(3,5-dibromosalicyl) fumarate, as described in: Shibayama N. et al, J Am Chem Soc 2014, 136, 13, 5097-5105 and Shibayama N. et al, Biochemistry 1991, 39, 33, 8158-8165). Crosslinked HbS was subsequently biotynylated and captured on a custom made Streptavidin sensor to achieve protein density of 4000 to 5000 resonance units (RUs) on the surface. Compound binding to HbS using SPR was tested on Sierra Sensors MASS-1 instrument. The running buffer contained 100 mM Potassium Phosphate, pH 7.5, 0.005% Tween-20, 1 mM ethylenediaminetetraacetic acid (EDTA), 0.1 mg/mL bovine serum albumin with 1% DMSO. Compound samples were injected at a flow rate of 30 μL/min for 2 minutes association and at least 5 minutes of dissociation time. A 2- or 3-fold dilution series containing at least 4 concentrations were tested for each compound. The dose range was selected based on the activity of the compounds in biochemical assays, when available. Multiple blank injections of running buffer were run before and after each compound series to allow blank subtraction for compound data in the analysis software. Positive controls were run in each experiment to monitor and maintain the activity of HbS on the surface. A DMSO curve was run at the beginning of each data set to apply an excluded volume correction to the data during analysis. The data were processed and analyzed using Sierra Sensors and Scrubber 2.0 software. The binding affinities (dissociation constant Kd) were calculated by fitting the sensorgrams to a 1:1 binding model.
IC50 [1],Kd [2],SMILES
5.4 µM,172 nM,"Cc1cc2nc(N)c(O[C@@H](C)c3cc(C(=O)O)ccc3-n3cccn3)cc2cn1 [Example 22, 3-{(1S)-1-[(2-amino-7-methyl-1,6-naphthyridin-3-yl)oxy]ethyl}-4-(1H-pyrazol-1-yl)benzoic Acid]"
4.01 µM,43 nM,"C[C@H](Oc1cc2cc(F)cc(F)c2nc1N)c1cc(C(=O)O)c(F)cc1-n1cccn1 [Example 23, 5-{(1S)-1-[(2-amino-6,8-difluoroquinolin-3-yl)oxy]ethyl}-2-fluoro-4-(1H-pyrazol-1-yl)benzoic Acid]"
4.66 µM,15 nM,"C[C@H](Oc1cc2cc(F)cc(F)c2nc1N)c1cc(C(=O)NS(C)(=O)=O)ccc1-n1cccn1 [Example 24, 3-{(1S)-1-[(2-amino-6,8-difluoroquinolin-3-yl)oxy]ethyl}-N-(methylsulfonyl)-4-(1H-pyrazol-1-yl)benzamide]"
4.78 µM,67 nM,"C[C@H](Oc1cc2cc(Br)ccc2nc1N)c1ncc(F)cc1-n1cccn1 [Example 25, 6-bromo-3-{(1S)-1-[5-fluoro-3-(1H-pyrazol-1-yl)pyridin-2-yl]ethoxy}quinolin-2-amine]"
4.91 µM,138 nM,"C[C@H](Oc1cc2cc(C#N)ccc2nc1N)c1ncc(F)cc1-n1cccn1 [Example 26, 2-amino-3-{(1S)-1-[5-fluoro-3-(1H-pyrazol-1-yl)pyridin-2-yl]ethoxy}quinoline-6-carbonitrile]"
6.56 µM,157 nM,"C[C@H](Oc1cc2cc(Br)ccc2nc1N)c1ncccc1-n1cccn1 [Example 28, 6-bromo-3-{(1S)-1-[3-(1H-pyrazol-1-yl)pyridin-2-yl]ethoxy}quinolin-2-amine]"
4.58 µM,67 nM,"C[C@H](Oc1cc2cc(F)c(Cl)cc2nc1N)c1ncccc1-n1cccn1 [Example 29, 7-chloro-6-fluoro-3-{(1S)-1-[3-(1H-pyrazol-1-yl)pyridin-2-yl]ethoxy}quinolin-2-amine]"
6.25 µM,1510 nM,"C[C@H](Oc1cc2cc(C(N)=O)ccc2nc1N)c1ncccc1-n1cccn1 [Example 30, 2-amino-3-{(1S)-1-[3-(1H-pyrazol-1-yl)pyridin-2-yl]ethoxy}quinoline-6-carboxamide]"
4.96 µM,69 nM,"C[C@H](Oc1cc2cc(F)c(Cl)cc2nc1N)c1ncc(F)cc1-n1cccn1 [Example 31, 7-chloro-6-fluoro-3-{(1S)-1-[5-fluoro-3-(1H-pyrazol-1-yl)pyridin-2-yl]ethoxy}quinolin-2-amine]"
4.75 µM,57 nM,"C[C@H](Oc1cc2cc(F)c(Cl)cc2nc1N)c1nc(C(N)=O)ccc1-n1cccn1 [Example 32, 6-{(1S)-1-[(2-amino-7-chloro-6-fluoroquinolin-3-yl)oxy]ethyl}-5-(1H-pyrazol-1-yl)pyridine-2-carboxamide]"
4.3 µM,34 nM,"C[C@H](Oc1cc2cc(F)ccc2nc1N)c1ncc(F)cc1-n1cccn1 [Example 33, 6-fluoro-3-{(1S)-1-[5-fluoro-3-(1H-pyrazol-1-yl)pyridin-2-yl]ethoxy}quinolin-2-amine]"
5.53 µM,121 nM,"C[C@H](Oc1cc2cc(C(N)=O)c(F)cc2nc1N)c1ncc(F)cc1-n1cccn1 [Example 34, 2-amino-7-fluoro-3-{(1S)-1-[5-fluoro-3-(1H-pyrazol-1-yl)pyridin-2-yl]ethoxy}quinoline-6-carboxamide]"
3.93 µM,68 nM,"C[C@H](Oc1cc2cc(C(N)=O)cc(F)c2nc1N)c1ncc(F)cc1-n1cccn1 [Example 35, 2-amino-8-fluoro-3-{(1S)-1-[5-fluoro-3-(1H-pyrazol-1-yl)pyridin-2-yl]ethoxy}quinoline-6-carboxamide]"
7.71 µM,160 nM,"Cc1cc2nc(N)c(O[C@@H](C)c3ncc(F)cc3-n3cccn3)cc2cn1 [Example 36, 3-{(1S)-1-[5-fluoro-3-(1H-pyrazol-1-yl)pyridin-2-yl]ethoxy}-7-methyl-1,6-naphthyridin-2-amine]"
6.77 µM,579 nM,"C[C@H](Oc1cc2cc(F)ccc2nc1N)c1nc(C(=O)O)ccc1-n1cccn1 [Example 37, 6-{(1S)-1-[(2-amino-6-fluoroquinolin-3-yl)oxy]ethyl}-5-(1H-pyrazol-1-yl)pyridine-2-carboxylic Acid]"
3.62 µM,45 nM,"C[C@H](Oc1cc2cc(F)cc(F)c2nc1N)c1ncc(F)cc1-n1cccn1 [Example 38, 6,8-difluoro-3-{(1S)-1-[5-fluoro-3-(1H-pyrazol-1-yl)pyridin-2-yl]ethoxy}quinolin-2-amine]"
6.22 µM,464 nM,"C[C@H](Oc1cc2cc(F)ccc2nc1N)c1nc(C(=O)O)c(F)cc1-n1cccn1 [Example 39, 6-{(1S)-1-[(2-amino-6-fluoroquinolin-3-yl)oxy]ethyl}-3-fluoro-5-(1H-pyrazol-1-yl)pyridine-2-carboxylic Acid]"
5.27 µM,164 nM,"C[C@H](Oc1cc2cc(F)ccc2nc1N)c1nc(OCC(=O)O)ccc1-n1cccn1 [Example 40, {[6-{(1S)-1-[(2-amino-6-fluoroquinolin-3-yl)oxy]ethyl}-5-(1H-pyrazol-1-yl)pyridin-2-yl]oxy}acetic Acid]"
3.83 µM,44 nM,"C[C@H](Oc1cc2cc(F)ccc2nc1N)c1nc(OCCO)ccc1-n1cccn1 [Example 41, 2-{[6-{(1S)-1-[(2-amino-6-fluoroquinolin-3-yl)oxy]ethyl}-5-(1H-pyrazol-1-yl)pyridin-2-yl]oxy}ethanol]"
5.26 µM,142 nM,"C[C@H](Oc1cc2cc(C(N)=O)ccc2nc1N)c1nc(OCCO)ccc1-n1cccn1 [Example 42, 2-amino-3-{(1S)-1-[6-(2-hydroxyethoxy)-3-(1H-pyrazol-1-yl)pyridin-2-yl]ethoxy}quinoline-6-carboxamide]"
4.63 µM,20 nM,"C[C@H](Oc1cc2c(F)ccc(F)c2nc1N)c1ncc(F)cc1-n1cccn1 [Example 43, 5,8-difluoro-3-{(1S)-1-[5-fluoro-3-(1H-pyrazol-1-yl)pyridin-2-yl]ethoxy}quinolin-2-amine]"
4.4 µM,63 nM,"C[C@H](Oc1cc2cc(C(N)=O)ccc2nc1N)c1nc(O)ccc1-n1cccn1 [Example 44, 2-amino-3-{(1S)-1-[6-hydroxy-3-(1H-pyrazol-1-yl)pyridin-2-yl]ethoxy}quinoline-6-carboxamide]"
5.58 µM,185 nM,"C[C@H](Oc1cc2ccccc2nc1N)c1ncc(F)cc1-n1cccn1 [Example 45, 3-{(1S)-1-[5-fluoro-3-(1H-pyrazol-1-yl)pyridin-2-yl]ethoxy}quinolin-2-amine]"
